Assay results as given in patent US20020072530A1, “Indole and benzimidazole inhibitors of factor Xa” (priority 2000, published 2002).
Read-outs that look alike come from different tables or passages of the source.

Tests used:
Format in all cases: biochemical
prothrombinase complex = prothrombinase complex (Homo sapiens, UniProt P00742); assay: Prothrombinase inhibition assay in a plasma free system; conditions: table of Examples 6-18; unit inferred; read-out: IIASE (IC50)
Experimental: (§1) The compounds of the present invention are dissolved in buffer to give solutions containing concentrations such that assay concentrations range from about 0 to about 100 μM. In the assays for thrombin, prothrombinase and factor Xa, a synthetic chromogenic substrate is added to a solution containing test compound and the enzyme of interest and the residual catalytic activity of that enzyme is determined spectrophotometrically. The IC50 of a compound is determined from the substrate turnover. The IC50 is the concentration of test compound giving about 50% inhibition of the substrate turnover.
The prothrombinase inhibition assay was performed in a plasma free system with modifications to the method described by Sinha, U. et al., Thromb. Res., 75, 427-436 (1994). Specifically, the activity of the prothrombinase complex was determined by measuring the time course of thrombin generation using the p-nitroanilide substrate Chromozym TH. The assay consists of preincubation (5 minutes) of selected compounds to be tested as inhibitors with the complex formed from factor Xa (0.5 nM), factor Va (2 nM), phosphatidyl serine:phosphatidyl choline (25:75, 20 μM) in 20 mM Tris-HCl buffer, pH 7.5, containing 0.15 M NaCl, 5 mM CaCl2 and 0.1% bovine serum albumin. Aliquots from the complex-inhibitor mixture were added to prothrombin (1 nM) and Chromozym TH (0.1 mM). The rate of substrate cleavage was monitored at 405 nm for two minutes. Eight different concentrations of inhibitor were assayed in duplicate. A standard curve of thrombin generation by an equivalent amount of untreated complex was used for determination of percent inhibition.

factor Xa = factor Xa (Homo sapiens, UniProt P00742); assay: Factor Xa amidolytic assay (chromogenic substrate S-2765)
Experimental: as §1
(§2) The factor Xa and thrombin assays were performed at room temperature, in 0.02 M Tris-HCl buffer, pH 7.5, containing 0.15 M NaCl. The rates of hydrolysis of the para-nitroanilide substrate S-2765 (Chromogenix) for factor Xa, and the substrate Chromozym TH (Boehringer Mannheim) for thrombin following preincubation of the enzyme with inhibitor for 5 minutes at room temperature, and were determined using the Softmax 96-well plate reader (Molecular Devices), monitored at 405 nm to measure the time dependent appearance of p-nitroaniline.

thrombin = thrombin (Homo sapiens, UniProt P00734); assay: Thrombin amidolytic assay (chromogenic substrate Chromozym TH)
Experimental: as §1, §2

[1] = table of Examples 6-18, unit inferred, read-out: XA (IC50)
[2] = table of Examples 6-18, unit inferred, read-out: IIA (IC50)
[3] = Table 5, read-out: Inhibitory Activity (IC50) Factor Xa
[4] = Table 5, read-out: Inhibitory Activity (IC50) Thrombin

factor Xa, sequence (P00742 235-488 limits assumed): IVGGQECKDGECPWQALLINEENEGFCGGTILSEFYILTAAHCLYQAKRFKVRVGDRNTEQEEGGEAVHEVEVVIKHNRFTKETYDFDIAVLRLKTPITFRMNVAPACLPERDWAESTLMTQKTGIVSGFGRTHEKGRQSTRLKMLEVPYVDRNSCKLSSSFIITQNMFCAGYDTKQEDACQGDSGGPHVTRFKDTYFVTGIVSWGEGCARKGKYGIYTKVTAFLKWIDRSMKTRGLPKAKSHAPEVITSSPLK
factor Xa, sequence (P00742 41-179 limits assumed): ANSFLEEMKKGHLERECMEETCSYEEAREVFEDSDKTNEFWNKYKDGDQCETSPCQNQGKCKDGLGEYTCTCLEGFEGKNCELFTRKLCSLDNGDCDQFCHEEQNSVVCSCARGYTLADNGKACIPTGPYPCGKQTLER
prothrombinase complex, sequence (P00742 235-488 limits assumed): as the sequence (P00742 235-488 limits assumed) above
prothrombinase complex, sequence (P00742 41-179 limits assumed): as the sequence (P00742 41-179 limits assumed) above
prothrombinase complex, sequence (P12259 29-737 partner limits assumed): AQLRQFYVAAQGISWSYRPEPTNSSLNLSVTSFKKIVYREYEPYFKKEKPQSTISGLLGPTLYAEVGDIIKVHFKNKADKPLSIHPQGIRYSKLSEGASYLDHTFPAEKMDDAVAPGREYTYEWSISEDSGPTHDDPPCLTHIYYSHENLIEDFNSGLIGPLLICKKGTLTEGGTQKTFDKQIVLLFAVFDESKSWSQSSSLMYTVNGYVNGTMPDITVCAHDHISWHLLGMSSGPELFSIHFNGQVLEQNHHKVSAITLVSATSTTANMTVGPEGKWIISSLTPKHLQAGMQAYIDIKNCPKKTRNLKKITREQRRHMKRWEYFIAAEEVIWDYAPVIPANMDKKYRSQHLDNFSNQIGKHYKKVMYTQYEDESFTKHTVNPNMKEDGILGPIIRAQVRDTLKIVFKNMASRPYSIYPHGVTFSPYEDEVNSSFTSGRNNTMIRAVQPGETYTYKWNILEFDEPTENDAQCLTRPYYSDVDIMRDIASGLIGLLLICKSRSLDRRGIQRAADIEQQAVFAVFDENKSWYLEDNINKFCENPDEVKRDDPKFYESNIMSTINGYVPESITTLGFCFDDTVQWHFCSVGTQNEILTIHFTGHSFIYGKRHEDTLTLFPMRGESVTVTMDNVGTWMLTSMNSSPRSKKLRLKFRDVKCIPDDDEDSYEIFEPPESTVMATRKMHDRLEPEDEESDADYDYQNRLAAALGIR
prothrombinase complex, sequence (P12259 1574-2224 partner limits assumed): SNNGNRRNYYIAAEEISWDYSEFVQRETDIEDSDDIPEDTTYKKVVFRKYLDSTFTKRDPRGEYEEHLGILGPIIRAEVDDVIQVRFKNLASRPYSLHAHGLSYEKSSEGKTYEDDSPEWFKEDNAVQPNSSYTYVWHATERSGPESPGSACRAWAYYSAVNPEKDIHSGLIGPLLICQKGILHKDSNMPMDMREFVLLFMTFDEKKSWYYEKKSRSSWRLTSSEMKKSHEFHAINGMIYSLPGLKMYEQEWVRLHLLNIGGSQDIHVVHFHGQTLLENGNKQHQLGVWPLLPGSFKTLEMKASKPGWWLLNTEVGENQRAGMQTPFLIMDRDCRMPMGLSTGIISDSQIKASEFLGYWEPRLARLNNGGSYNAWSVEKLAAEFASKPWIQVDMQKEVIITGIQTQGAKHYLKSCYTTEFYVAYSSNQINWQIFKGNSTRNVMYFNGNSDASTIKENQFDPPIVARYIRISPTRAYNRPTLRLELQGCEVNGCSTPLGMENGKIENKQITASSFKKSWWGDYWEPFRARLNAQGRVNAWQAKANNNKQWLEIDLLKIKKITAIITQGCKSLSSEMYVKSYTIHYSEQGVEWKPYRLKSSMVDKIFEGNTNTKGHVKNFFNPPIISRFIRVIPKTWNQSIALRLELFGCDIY

IC50 (prothrombinase complex) | IC50 (factor Xa; [1]) | IC50 (thrombin; [2]) | IC50 (factor Xa; [3]) | IC50 (thrombin; [4]) | Structure (SMILES)
9040 nM | 658 nM | 9610 nM |  |  | CC(=N)N1CCC(Oc2ccc3nc(C(C)C)n(Cc4cccc(-c5cccc(C(=N)N)c5)c4)c3c2)CC1 [Example 9]
17 nM | 10.4 nM |  |  |  | CC(=N)N1CCC(Oc2ccc3nc(C(C)C)n(Cc4ccc5ccc(C(=N)N)cc5c4)c3c2)CC1 [Example 11]
9.67 nM | 1.2 nM | 805 nM | 1.2 nM | 805 nM | CCn1c(Cn2c(C(C)C)nc3cc(OC4CCN(C(C)=N)CC4)ccc32)cc2ccc(C(=N)N)cc21 [Example 7]
167 nM | 18 nM | 1360 nM | 18 nM | 1300 nM | CCOC(=O)c1nc2cc(OC3CCN(C(C)=N)CC3)ccc2n1Cc1cc2ccc(C(=N)N)cc2n1CC [Example 18]
2.56 nM | 5.73 nM | 26300 nM | 5.73 nM | 26300 nM | CC(=N)N1CCC(Oc2ccc3c(c2)nc(C(C)C)n3Cc2cccc(-c3cccc(C(=N)N)c3)c2)CC1 [Example 10]
139 nM | 148 nM | 16.4 nM |  |  | CCn1c(Cn2c(C(C)C)nc3ccc(OC4CCN(C(C)=N)CC4)cc32)cc2ccc(C(=N)N)cc21 [Example 6]
375 nM | 32.2 nM | 29000 nM |  |  | CC(C)c1nc2cc(OC3CCN(C)CC3)ccc2n1Cc1cccc(-c2cccc(C(=N)N)c2)c1 [Example 8]
